Like-named read-outs stand apart in the source and are kept apart here.
Legend:
Format in all cases: binding
[1] = molecular target: T1, HeLa cell extract proteins (Homo sapiens, UniProt Q9Y266); settings: protein NUDC; HeLa
T1 construct: endogenous in cells; host or cells: HeLa cell extract

[2] = molecular target: T2, HeLa cell extract proteins (Homo sapiens, UniProt Q00653); settings: protein NFKB2; HeLa
T2 construct: endogenous in cells; host or cells: HeLa cell extract
T2 sequence (Q00653 1-900): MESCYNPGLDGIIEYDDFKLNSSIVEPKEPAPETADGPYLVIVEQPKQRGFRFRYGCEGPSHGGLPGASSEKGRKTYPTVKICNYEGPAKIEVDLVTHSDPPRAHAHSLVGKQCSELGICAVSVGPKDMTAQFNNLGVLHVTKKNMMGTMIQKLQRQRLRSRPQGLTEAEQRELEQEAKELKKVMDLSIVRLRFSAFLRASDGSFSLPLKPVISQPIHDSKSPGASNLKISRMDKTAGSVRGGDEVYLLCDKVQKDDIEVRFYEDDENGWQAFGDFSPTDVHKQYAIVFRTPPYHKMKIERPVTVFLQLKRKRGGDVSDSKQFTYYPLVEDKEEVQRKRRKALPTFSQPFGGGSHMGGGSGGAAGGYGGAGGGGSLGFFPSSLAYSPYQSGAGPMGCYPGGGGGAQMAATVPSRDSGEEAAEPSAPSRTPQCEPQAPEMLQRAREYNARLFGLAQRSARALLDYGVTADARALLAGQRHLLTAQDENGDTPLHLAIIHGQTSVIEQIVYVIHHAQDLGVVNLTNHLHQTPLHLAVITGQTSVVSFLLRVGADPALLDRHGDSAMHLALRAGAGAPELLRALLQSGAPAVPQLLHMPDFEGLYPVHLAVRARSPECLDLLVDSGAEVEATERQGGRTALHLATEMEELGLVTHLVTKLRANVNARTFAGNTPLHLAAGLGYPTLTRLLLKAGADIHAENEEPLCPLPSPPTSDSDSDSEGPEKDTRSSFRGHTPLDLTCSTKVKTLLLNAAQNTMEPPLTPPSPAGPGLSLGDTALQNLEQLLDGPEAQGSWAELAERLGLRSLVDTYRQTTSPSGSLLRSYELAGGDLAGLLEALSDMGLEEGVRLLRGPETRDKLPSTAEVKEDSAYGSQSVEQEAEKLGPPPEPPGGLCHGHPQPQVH

[3] = molecular target: T3, HeLa cell extract proteins (Homo sapiens, UniProt P30048); settings: protein PRDX3; HeLa
T3 construct: endogenous in cells; host or cells: HeLa cell extract
T3 sequence (P30048 62-256): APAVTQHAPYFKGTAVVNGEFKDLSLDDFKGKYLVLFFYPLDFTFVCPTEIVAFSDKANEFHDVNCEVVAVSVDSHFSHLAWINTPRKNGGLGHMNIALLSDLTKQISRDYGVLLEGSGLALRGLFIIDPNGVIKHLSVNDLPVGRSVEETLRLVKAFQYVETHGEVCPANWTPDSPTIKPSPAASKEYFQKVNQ

[4] = molecular target: T4, HeLa cell extract proteins (Homo sapiens, UniProt Q9UGJ1); settings: HeLa; protein TUBGCP4
T4 construct: endogenous in cells; host or cells: HeLa cell extract
T4 sequence (Q9UGJ1 whole entry): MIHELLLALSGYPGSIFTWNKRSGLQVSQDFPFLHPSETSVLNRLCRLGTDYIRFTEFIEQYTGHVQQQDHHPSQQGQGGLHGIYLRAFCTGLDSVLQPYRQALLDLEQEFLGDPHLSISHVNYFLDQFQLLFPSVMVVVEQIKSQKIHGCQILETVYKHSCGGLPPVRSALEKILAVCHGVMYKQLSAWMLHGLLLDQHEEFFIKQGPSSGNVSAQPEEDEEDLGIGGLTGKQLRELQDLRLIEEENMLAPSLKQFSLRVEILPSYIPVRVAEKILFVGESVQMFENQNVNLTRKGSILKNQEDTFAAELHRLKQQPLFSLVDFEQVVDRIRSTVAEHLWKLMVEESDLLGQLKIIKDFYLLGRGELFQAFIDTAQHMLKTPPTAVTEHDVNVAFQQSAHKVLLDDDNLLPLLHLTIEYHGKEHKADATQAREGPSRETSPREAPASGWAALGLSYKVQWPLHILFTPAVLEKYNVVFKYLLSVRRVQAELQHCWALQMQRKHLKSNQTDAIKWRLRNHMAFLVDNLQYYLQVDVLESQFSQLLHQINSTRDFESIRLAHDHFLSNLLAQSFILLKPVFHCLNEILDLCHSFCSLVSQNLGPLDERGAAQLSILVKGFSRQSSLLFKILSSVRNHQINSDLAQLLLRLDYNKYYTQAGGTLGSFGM

[5] = molecular target: T5, HeLa cell extract proteins (Homo sapiens, UniProt Q9Y5A9); settings: captured protein YTHDF2; HeLa
T5 construct: endogenous in cells; host or cells: HeLa cell extract
T5 sequence (Q9Y5A9 1-579): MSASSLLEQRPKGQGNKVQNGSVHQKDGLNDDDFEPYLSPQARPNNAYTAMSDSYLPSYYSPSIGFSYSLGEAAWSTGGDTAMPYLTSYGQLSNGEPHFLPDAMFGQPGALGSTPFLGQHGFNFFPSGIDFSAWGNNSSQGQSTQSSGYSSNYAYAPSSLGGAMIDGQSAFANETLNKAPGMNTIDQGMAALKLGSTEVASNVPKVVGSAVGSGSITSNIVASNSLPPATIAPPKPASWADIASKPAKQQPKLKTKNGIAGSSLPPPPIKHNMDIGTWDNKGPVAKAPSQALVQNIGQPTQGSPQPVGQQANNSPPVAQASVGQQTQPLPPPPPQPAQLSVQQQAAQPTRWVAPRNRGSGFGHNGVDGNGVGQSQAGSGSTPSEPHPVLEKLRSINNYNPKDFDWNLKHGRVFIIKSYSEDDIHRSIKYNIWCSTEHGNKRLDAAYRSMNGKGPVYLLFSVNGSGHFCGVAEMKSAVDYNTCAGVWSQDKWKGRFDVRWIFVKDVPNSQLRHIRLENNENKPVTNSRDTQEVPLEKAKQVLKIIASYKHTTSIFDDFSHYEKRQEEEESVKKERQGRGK

[6] = molecular target: T6, HeLa cell extract proteins (Homo sapiens, UniProt P24390)
T6 construct: endogenous in cells; host or cells: HeLa cell extract
T6 sequence (P24390 1-212): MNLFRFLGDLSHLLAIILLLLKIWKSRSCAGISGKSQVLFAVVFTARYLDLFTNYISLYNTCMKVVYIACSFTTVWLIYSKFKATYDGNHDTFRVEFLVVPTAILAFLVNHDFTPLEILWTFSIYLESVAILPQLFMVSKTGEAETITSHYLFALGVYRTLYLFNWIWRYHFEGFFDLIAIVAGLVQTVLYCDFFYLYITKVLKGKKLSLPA

[7] = molecular target: T7, HeLa cell extract proteins (Homo sapiens, UniProt Q9BSE5)
T7 construct: endogenous in cells; host or cells: HeLa cell extract
T7 sequence (Q9BSE5 36-352): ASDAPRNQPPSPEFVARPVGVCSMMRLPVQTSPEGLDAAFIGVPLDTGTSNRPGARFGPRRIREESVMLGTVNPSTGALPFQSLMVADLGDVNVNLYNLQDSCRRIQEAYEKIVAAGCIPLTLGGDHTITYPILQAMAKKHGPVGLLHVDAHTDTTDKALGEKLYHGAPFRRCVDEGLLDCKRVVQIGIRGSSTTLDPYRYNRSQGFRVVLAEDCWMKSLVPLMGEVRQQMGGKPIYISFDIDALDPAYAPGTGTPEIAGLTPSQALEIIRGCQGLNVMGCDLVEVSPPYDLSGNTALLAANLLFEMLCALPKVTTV

[8] = molecular target: T8, HeLa cell extract proteins (Homo sapiens, UniProt Q9BTT0)
T8 construct: endogenous in cells; host or cells: HeLa cell extract
T8 sequence (Q9BTT0 whole entry): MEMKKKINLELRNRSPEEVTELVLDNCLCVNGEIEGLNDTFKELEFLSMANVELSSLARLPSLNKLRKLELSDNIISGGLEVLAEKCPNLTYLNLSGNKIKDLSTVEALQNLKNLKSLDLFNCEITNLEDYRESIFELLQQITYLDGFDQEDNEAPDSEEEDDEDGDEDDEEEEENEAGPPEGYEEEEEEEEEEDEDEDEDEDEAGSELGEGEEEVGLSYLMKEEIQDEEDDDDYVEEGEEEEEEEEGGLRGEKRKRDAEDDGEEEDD

[9] = molecular target: T9, HeLa cell extract proteins (Homo sapiens, UniProt Q8NBJ5)
T9 construct: endogenous in cells; host or cells: HeLa cell extract

T1 sequence (Q9Y266 whole entry): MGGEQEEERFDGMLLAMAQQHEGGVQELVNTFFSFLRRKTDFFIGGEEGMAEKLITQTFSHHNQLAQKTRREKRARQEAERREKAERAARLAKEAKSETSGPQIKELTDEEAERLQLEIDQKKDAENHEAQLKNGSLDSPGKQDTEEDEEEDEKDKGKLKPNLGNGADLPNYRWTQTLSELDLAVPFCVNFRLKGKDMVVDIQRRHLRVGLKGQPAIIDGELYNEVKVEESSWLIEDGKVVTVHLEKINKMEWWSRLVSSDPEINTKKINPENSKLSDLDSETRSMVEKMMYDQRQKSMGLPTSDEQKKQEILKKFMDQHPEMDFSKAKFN

| SMILES | fold changes relative to vehicle control [1] | fold changes relative to vehicle control [2] | fold changes relative to vehicle control [3] | fold changes relative to vehicle control [4] | fold changes relative to vehicle control [5] | fold changes relative to vehicle control ([6]; HeLa, protein KDELR1) | fold changes relative to vehicle control ([7]; protein AGMAT, HeLa) | fold changes relative to vehicle control ([8]; HeLa, protein ANP32E) | fold changes relative to vehicle control ([9]; HeLa, captured protein GLT25D1) | other results |
| --- | --- | --- | --- | --- | --- | --- | --- | --- | --- | --- |
| CCCCCCOc1cccc(Cc2cnc(N)nc2N)c1 [compound 2] | 1.92 | 1.24 | 1.52 | 1.07 | 1.16 |  |  |  |  |  |
| NCCOCCOCC(=O)Nc1nc2ncc(CNc3ccc(C(=O)NC(CCC(=O)O)C(=O)O)cc3)nc2c(=O)[nH]1 (stereo not shown) [compound 6] |  |  |  |  |  | 2.19 | 0.97 | 0.91 | 0.93 |  |
| CCCCCCOc1ccc(Cc2cnc(N)nc2N)cc1 [compound 1] | 1.23 | 0.9 | 1.11 | 0.85 | 0.79 |  |  |  |  |  |
| Nc1nc2c(c(=O)[nH]1)N(C=O)C(CNc1ccc(C(=O)N[C@@H](CCC(=O)O)C(=O)O)cc1)CN2 (stereo partly shown) [LEU, leucovorin] |  |  |  |  |  | 1.06 | 0.84 | 0.89 | 0.95 |  |
| NCCCNc1ccc(C(=O)NC(CCC(=O)O)C(=O)O)cc1 (stereo not shown) [compound 7] |  |  |  |  |  | 1.25 | 0.93 | 0.72 | 0.97 |  |
| Nc1nc2[nH]cc(CCc3ccc(C(=O)N[C@@H](CCC(=O)O)C(=O)O)cc3)c2c(=O)[nH]1 [PTX, pemetrexed] |  |  |  |  |  |  |  |  |  | fold changes relative to vehicle control [6]: 1.16; fold changes relative to vehicle control [7]: 0.89; fold changes relative to vehicle control [8]: 0.76; fold changes relative to vehicle control [9]: 0.83 |
| Nc1nc2cccc(-c3ccccc3)c2n1Cc1ccc(Cl)c(Cl)c1 [compound 3] | 1.06 | 0.9 | 0.99 | 1.02 | 1.01 |  |  |  |  |  |

Source: PMC6199744, “Development of Chemical Proteomics for the Folateome and Analysis of the Kinetoplastid Folateome” (ACS Infectious Diseases, 2018)
